Data: patent US11407721B2, “CIS-morpholinone and other compounds as MDM2 inhibitors for the treatment of cancer” (AMGEN INC., priority 2013, dated 2022)
Read-outs that look alike come from different tables or passages of the source.

What was measured:
[1] = target: interaction between HDM2 and p53 (GST-hMDM2 / biotinylated-p53) (Homo sapiens (Human), UniProt Q00987); assay: biochemical
[2] = target: interaction between HDM2 and p53 (GST-hMDM2 (1-188) / biotinylated-p53 (1-83)) (Homo sapiens (Human), UniProt Q00987); assay: HTRF2 Assay (improved HTRF assay); assay type: binding
interaction between HDM2 and p53 (GST-hMDM2 (1-188) / biotinylated-p53 (1-83)), sequence (Q00987 1-188): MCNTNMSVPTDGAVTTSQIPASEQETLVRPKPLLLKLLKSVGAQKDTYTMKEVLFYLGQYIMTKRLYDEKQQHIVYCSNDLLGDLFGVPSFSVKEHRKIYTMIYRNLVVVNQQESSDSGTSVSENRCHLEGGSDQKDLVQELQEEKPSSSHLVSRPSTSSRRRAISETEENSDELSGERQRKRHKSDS

[3] = 0.2 nM GST-hMDM2 (1-188), 0.5 nM biotinylated-p53 (1-83), 100 mM KF, read-out: HTRF2 IC50

interaction between HDM2 and p53 (GST-hMDM2 / biotinylated-p53), sequence (Q00987 1-188): as above

Row | Compound | IC50 [1] | IC50 [2, 3] | further results
1 | CN1C(=O)/C(=C/c2cccnc2)O[C@H](c2ccc(Cl)cc2)C1c1ccc(Cl)cc1 (mixture of isomers) [Example 39, (5S,6R,Z)-5,6-Bis(4-chlorophenyl)-4-methyl-2-(pyridin-3-ylmethylene)morpholin-3-one and (5R,6S,Z)-5,6-bis(4-chlorophenyl)-4-methyl-2-(pyridin-3-ylmethylene)morpholin-3-one] | 10.4 µM | 6.64 µM | –
2 | CCC[C@@H](C(=O)O)N1C(=O)[C@@H](Cc2ccncc2)O[C@H](c2ccc(Cl)cc2)C1c1ccc(Cl)cc1 (mixture of isomers) [Example 42, (S)-2-((2R,3S,6R)-2,3-Bis(4-chlorophenyl)-5-oxo-6-(pyridin-4-ylmethyl)morpholino)pentanoic acid and (R)-2-((2S,3R,6S)-2,3-bis(4-chlorophenyl)-5-oxo-6-(pyridin-4-ylmethyl)morpholino)pentanoic acid] | 0.539 µM | 0.947 µM | –
3 | O=C1[C@H](C[C@H](O)CO)O[C@@H](c2cccc(Cl)c2)[C@@H](c2ccc(Cl)cc2)N1CC1CC1 (racemic) [Example 14, Step B] | 4.64 µM | – | IC50 ([2]; read-out: HTRF2 IC50): 3.67 µM
4 | O=CC[C@@H]1O[C@@H](c2cccc(Cl)c2)[C@@H](c2ccc(Cl)cc2)N(CC2CC2)C1=O (racemic) [Example 15, (2-((2S,5R,6S)-6-(3-Chlorophenyl)-5-(4-chlorophenyl)-4-(cyclopropylmethyl)-3-oxomorpholin-2-yl)acetaldehydeacetaldehyde and (2-((2R,5S,6R)-6-(3-chlorophenyl)-5-(4-chlorophenyl)-4-(cyclopropylmethyl)-3-oxomorpholin-2-yl)acetaldehydeacetaldehyde] | 3.96 µM | – | IC50 ([2]; read-out: HTRF2 IC50): 3.32 µM
5 | CCC[C@H](C(=O)NCC(N)=O)N1C(=O)[C@H](Cc2ccc(C#N)cc2)O[C@@H](c2ccc(Cl)cc2)[C@H]1c1ccc(Cl)cc1 (racemic) [Example 34, (R)—N-(2-Amino-2-oxoethyl)-2-((2S,3R,6S)-2,3-bis(4-chlorophenyl)-6-(4-cyanobenzyl)-5-oxomorpholino)pentanamide and (S)—N-(2-amino-2-oxoethyl)-2-((2R,3S,6R)-2,3-bis(4-chlorophenyl)-6-(4-cyanobenzyl)-5-oxomorpholino)pentanamide] | 0.486 µM | – | IC50 ([2]; read-out: HTRF2 IC50): 0.745 µM
6 | CCC[C@H](c1nnn[nH]1)N1C(=O)[C@H](Cc2ccc(I)cc2)O[C@@H](c2ccc(Cl)cc2)[C@H]1c1ccc(Cl)cc1 (racemic) [Example 36, (2S,5R,6S)-4-((R)-1-(1H-Tetrazol-5-yl)butyl)-5,6-bis(4-chlorophenyl)-2-(4-iodobenzyl)morpholin-3-one and (2R,5S,6R)-4-((S)-1-(1H-tetrazol-5-yl)butyl)-5,6-bis(4-chlorophenyl)-2-(4-iodobenzyl)morpholin-3-one] | 0.514 µM | – | –
7 | CN1C(=O)[C@@H](CC(N)=O)O[C@H](c2ccc(Cl)cc2)[C@@H]1c1ccc(Cl)cc1 [2-((2R,5S,6R)-5,6-bis(4-chlorophenyl)-4-methyl-3-oxo-2-morpholinyl)acetamide] | 43.9 µM | – | –
8 | CC[C@H](C(=O)O)N1C(=O)CO[C@H](c2ccc(Cl)cc2)[C@@H]1c1ccc(Cl)cc1 [(2R)-2-((2R,3S)-2,3-bis(4-chlorophenyl)-5-oxo-4-morpholinyl)butanoic acid] | 40.2 µM | – | –
9 | CCCC[C@H](C(=O)O)N1C(=O)CO[C@H](c2ccc(Cl)cc2)[C@@H]1c1ccc(Cl)cc1 [(2R)-2-((2R,3S)-2,3-bis(4-chlorophenyl)-5-oxo-4-morpholinyl)hexanoic acid] | 33.1 µM | – | –
10 | C[C@H](C(=O)O)N1C(=O)CO[C@H](c2ccc(Cl)cc2)[C@@H]1c1ccc(Cl)cc1 [(2R)-2-((2R,3S)-2,3-bis(4-chlorophenyl)-5-oxo-4-morpholinyl)propanoic acid] | 61.7 µM | – | –
11 | CCCC[C@H](C(=O)O)N1C(=O)CO[C@@H](c2ccc(Cl)cc2)[C@H]1c1ccc(Cl)cc1 [(2R)-2-((2S,3R)-2,3-bis(4-chlorophenyl)-5-oxo-4-morpholinyl)hexanoic acid] | 27.5 µM | – | IC50 [2]: 23.4 µM
12 | C[C@H]1O[C@@H](c2ccc(Br)cc2)[C@@H](c2ccc(Br)cc2)N(C)C1=O [(2R,5R,6S)-5,6-bis(4-bromophenyl)-2,4-dimethyl-3-morpholinone] | 46.8 µM | – | –
13 | CN1C(=O)[C@H](O)O[C@@H](c2ccc(Cl)cc2)[C@H]1c1ccc(Cl)cc1 [(2R,5R,6S)-5,6-bis(4-chlorophenyl)-2-hydroxy-4-methyl-3-morpholinone] | 67.5 µM | – | –
14 | CN1C(=O)CN(Cc2ccccc2)[C@H](c2ccc(Br)cc2)[C@@H]1c1ccc(Br)cc1 [(5R,6S)-5,6-bis(4-bromophenyl)-1-methyl-4-(phenylmethyl)-2-piperazinone] | 72.3 µM | – | –
15 | O=C1CN(Cc2ccccc2)[C@H](c2ccc(Br)cc2)[C@H](c2ccc(Br)cc2)N1 [(5R,6S)-5,6-bis(4-bromophenyl)-4-(phenylmethyl)-2-piperazinone] | 84.4 µM | – | –
16 | O=C1CO[C@@H](c2ccc(Br)cc2)[C@@H](c2ccc(Br)cc2)N1C1CC1 [(5R,6S)-5,6-bis(4-bromophenyl)-4-cyclopropyl-3-morpholinone] | 38.2 µM | – | –

Row | Compound | IC50 [1] | IC50 [2, 3] | further results
17 | O=C1CO[C@@H](c2ccc(Cl)cc2)[C@@H](c2ccc(Cl)cc2)N1CC1CC1 [(5R,6S)-5,6-bis(4-chlorophenyl)-4-(cyclopropylmethyl)-3-morpholinone] | 41.8 µM | – | –
18 | CCN1C(=O)CO[C@H](c2ccc(Br)cc2)[C@@H]1c1ccc(Br)cc1 [(5S,6R)-5,6-bis(4-bromophenyl)-4-ethyl-3-morpholinone] | 42.4 µM | – | –
19 | CCC[C@H](C(=O)O)N1C(=O)[C@H](Cc2ccccc2F)O[C@@H](c2ccc(Cl)cc2)[C@H]1c1ccc(Cl)cc1 [Example 47, (R)-2-((2S,3R,6S)-2,3-Bis(4-chlorophenyl)-6-(2-fluorobenzyl)-5-oxomorpholino)pentanoic acid] | – | 0.4 µM | –
20 | CCC[C@H](C(=O)O)N1C(=O)[C@H](Cc2cccc(F)c2)O[C@@H](c2ccc(Cl)cc2)[C@H]1c1ccc(Cl)cc1 [Example 48, (R)-2-((2S,3R,6S)-2,3-Bis(4-chlorophenyl)-6-(3-fluorobenzyl)-5-oxomorpholino)pentanoic acid] | – | 0.42 µM | –
21 | CCC[C@H](C(=O)O)N1C(=O)[C@H](Cc2cccc(C#N)c2)O[C@@H](c2ccc(Cl)cc2)[C@H]1c1ccc(Cl)cc1 [Example 49, (R)-2-((2S,3R,6S)-2,3-Bis(4-chlorophenyl)-6-(3-cyanobenzyl)-5-oxomorpholino)pentanoic acid] | – | 0.561 µM | –
22 | CCC[C@H](C(=O)O)N1C(=O)[C@H](Cc2cccc(S(C)(=O)=O)c2)O[C@@H](c2ccc(Cl)cc2)[C@H]1c1ccc(Cl)cc1 [Example 50, (R)-2-((2S,3R,6S)-2,3-Bis(4-chlorophenyl)-6-(3-(methylsulfonyl)benzyl)-5-oxomorpholino)pentanoic acid] | – | 0.568 µM | –
23 | CCC[C@H](C(=O)O)N1C(=O)[C@H](Cc2ccccc2S(C)(=O)=O)O[C@@H](c2ccc(Cl)cc2)[C@H]1c1ccc(Cl)cc1 [Example 51, (R)-2-((2S,3R,6S)-2,3-Bis(4-chlorophenyl)-6-(2-(methylsulfonyl)benzyl)-5-oxomorpholino)pentanoic acid] | – | 0.676 µM | –
24 | CCC[C@H](C(=O)O)N1C(=O)[C@H](Cc2ccc(F)cc2S(C)(=O)=O)O[C@@H](c2ccc(Cl)cc2)[C@H]1c1ccc(Cl)cc1 [Example 52, (R)-2-((2S,3R,6S)-2,3-Bis(4-chlorophenyl)-6-(4-fluoro-2-(methylsulfonyl)benzyl)-5-oxomorpholino)pentanoic acid] | – | 0.279 µM | –
25 | CCC[C@H](C(=O)O)N1C(=O)[C@H](Cc2ccc(S(C)(=O)=O)c(F)c2)O[C@@H](c2ccc(Cl)cc2)[C@H]1c1ccc(Cl)cc1 [Example 53, (R)-2-((2S,3R,6S)-2,3-Bis(4-chlorophenyl)-6-(3-fluoro-4-(methylsulfonyl)benzyl)-5-oxomorpholino)pentanoic acid] | – | 0.276 µM | –
26 | CCC[C@H](C(=O)O)N1C(=O)[C@H](Cc2ccc(S(C)(=O)=O)cc2)O[C@@H](c2ccc(Cl)cc2)[C@H]1c1ccc(Cl)cc1 [Example 54, (R)-2-((2S,3R,6S)-2,3-Bis(4-chlorophenyl)-6-(4-(methylsulfonyl)benzyl)-5-oxomorpholino)pentanoic acid] | – | 0.196 µM | –
27 | CCC[C@H](C(=O)O)N1C(=O)[C@H](Cc2ccc(S(C)(=O)=O)cc2C#N)O[C@@H](c2ccc(Cl)cc2)[C@H]1c1ccc(Cl)cc1 [Example 55, (R)-2-((2S,3R,6S)-2,3-Bis(4-chlorophenyl)-6-(2-cyano-4-(methylsulfonyl)benzyl)-5-oxomorpholino)pentanoic acid] | – | 0.179 µM | –
28 | CCC[C@H](C(=O)O)N1C(=O)[C@H](Cc2ccc(S(=O)(=O)C(F)(F)F)cc2)O[C@@H](c2ccc(Cl)cc2)[C@H]1c1ccc(Cl)cc1 [Example 56, (R)-2-((2S,3R,6S)-2,3-Bis(4-chlorophenyl)-5-oxo-6-(4-((trifluoromethyl)sulfonyl)benzyl)morpholino)pentanoic acid] | – | 0.453 µM | –
29 | CCC[C@H](C(=O)O)N1C(=O)[C@H](CCCN2CCOCC2)O[C@@H](c2ccc(Cl)cc2)[C@H]1c1ccc(Cl)cc1 [Example 57, (R)-2-((2S,3R,6S)-2,3-Bis(4-chlorophenyl)-6-(3-morpholinopropyl)-5-oxomorpholino)pentanoic acid] | – | 0.391 µM | –
30 | CCC[C@H](C(=O)OCC)N1C(=O)[C@H](CCCN2CCOCC2)O[C@@H](c2ccc(Cl)cc2)[C@H]1c1ccc(Cl)cc1 [ethyl (2R)-2-((2S,3R,6S)-2,3-bis(4-chlorophenyl)-6-(3-(4-morpholinyl)propyl)-5-oxo-4-morpholinyl)pentanoate] | – | 2.79 µM | –
31 | CCC[C@H](C(=O)NCCCC(=O)OC)N1C(=O)[C@H](Cc2ccc(S(C)(=O)=O)cc2)O[C@@H](c2ccc(Cl)cc2)[C@H]1c1ccc(Cl)cc1 [methyl 4-(((2R)-2-((2S,3R,6S)-2,3-bis(4-chlorophenyl)-6-(4-(methylsulfonyl)benzyl)-5-oxo-4-morpholinyl)pentanoyl)amino)butanoate] | – | 0.749 µM | –
